Data reported in patent US20050215621A1, “Method of treating amyloid beta precursor disorders” (Andrx Labs, LLC, priority 1999, published 2005).

Experiments:
[1] = system: Human neuroglioma (H4) cells overexpressing the 695 form of human APP; test: APP processing ([35S]-labeled APPs and APPm) in H4 cells; format: cell-based
Experimental: (§1) The three cell lines utilized were: Chinese Hamster Ovary (CHO) cells expressing the 751 amino acid form of APP; Mabin-Darby Canine Kidney (MDCK) cells which overexpress the 695 amino acid form of APP; Human neuroglioma (H4) cells overexpressing the 695 form of human APP. All cells were prepared by the stable introduction of a cDNA coding for human APP. All cell lines were maintained in DMEM containing 10% FBS and antibiotics.
For measurement of APP processing and Aβ peptide formation, medium was removed and the cells were washed once with PBS and then incubated for 2 hours in DMEM containing 1 mCi/ml [^35S] Methionine. […]
The incubations with antibody 6E10 or antibody 369 were performed at 4° C. for 75 minutes followed by a 45 minute incubation at 4° C. with either agarose-linked anti-mouse IgG for antibody 6E1O or protein A sepharose for antibody 369. […] The protein bands were visualized on a STORM 860 Phosphor Imager® (Molecular Dynamics) and quantitated using ImageQuant® (Molecular Dynamics).
To determine whether cholesterol depletion affects other aspects of APP processing, H4 cells were incubated for four days in the presence or absence of 0.5 μM LA, and subjected to metabolic labeling. The levels of [^35S]-labeled APPi and APPm were determined by immunoprecipitation from cell lysates with an antibody against the COOH-terminal of APP, followed by quantitative autoradiography. […]

[2] = system: H4, MDCK, and CHO cells, expressing human APPm; test: [35S]-Met pulse-chase, immunoprecipitation (antibody 6E10) and autoradiography of Aβ peptides after 4 days with compound; format: cell-based, canine, Chinese hamster; conditions: for decrease of extracellular Aβ peptides as compared to the untreated cells: 0.5 μM, 4 days, H4, MDCK, CHO cells
Experimental: as §1
In order to characterize the effects of cholesterol depletion, cell cultures of each cell line were cultured on six-well plates for 4 days in DMEM containing 10% FCLPDS, in the presence of lovastatin or lovastatin acid (LA).
For measurement of APP processing and Aβ peptide formation, medium was removed and the cells were washed once with PBS and then incubated for 2 hours in DMEM containing 1 mCi/ml [^35S] Methionine. After this “pulse” period, the cells were either (1) lysed to measure the total labeled APPi and APPm at time zero, or (2) the cells were incubated for 2 hours in fresh, unlabeled complete medium (“chase”) and then lysed. Then the cell supernatants and lysates were treated with the appropriate antibody to calculate the amounts of APPi, APPm, APPs, and Aβ peptides.
To measure Aβ peptides, or to measure APPs, which is the secreted carboxyl-terminal truncated form, cell supernatants were incubated with antibody 6E10,which recognizes the first 15 amino acids of the Aβ peptide that correspond to the COOH-terminal amino acids of APPs. See Buxbaum, J. D., et al. (I 994) Proc Natl Acad Sci USA, 91:4489-93, which is incorporated herein by reference.
The incubations with antibody 6E10 or antibody 369 were performed at 4° C. for 75 minutes followed by a 45 minute incubation at 4° C. with either agarose-linked anti-mouse IgG for antibody 6E1O or protein A sepharose for antibody 369. The beads were then washed three times for 10 minutes and then run on either a 10-20% Tris-Tricine Gel for APPs and Aβ peptides or an 8% polyacrylamide gel for cell-associated APP. The gels were dried and exposed to a Phosphor Imager® screen (STORM 860, Molecular Dynamics) and exposed for a minimum of two days. The protein bands were visualized on a STORM 860 Phosphor Imager® (Molecular Dynamics) and quantitated using ImageQuant® (Molecular Dynamics).
To determine whether a decrease in cholesterol is associated with a change in the amount of extracellular Aβ peptides, the H4, MDCK, and CHO cells, expressing human APPm were incubated for 4 days in the presence or absence of 0.5 μM LA. The cells were then incubated in serum-free media containing 1 mCi/mi [^35S] […] Relative levels of extracellular Aβ peptides were determined under each condition by quantitative PhosphorImager autoradiography. […]

| SMILES | effects on maturation ([35S]-labeled APPm levels) ([1]; 0.5 μM LA (FIG. 6)) | [35S]-labeled APPs formation compared to control cells ([1]; H4 cells, 0.5 μM LA, 4 days (FIG. 5)) | [35S]-labeled intracellular Aβ peptides in cell lysates ([2]; 0.5 μM LA) | decrease of extracellular Aβ peptides as compared to the untreated cells [2] | concentration sufficient to significantly (p<0.001) decrease extracellular Aβ peptides ([2]; each cell type, various LA concentrations) [µM] |
| --- | --- | --- | --- | --- | --- |
| CC[C@H](C)C(=O)O[C@H]1C[C@@H](C)C=C2C=C[C@H](C)[C@H](CC[C@@H](O)C[C@@H](O)CC(=O)O)[C@H]21 [LA, lovastatin acid] | not sufficient to account for the decrease in Aβ peptide levels | modest decrease | No detectable levels | 40-60% | ≥ 0.05 |
| CC[C@H](C)C(=O)O[C@H]1C[C@@H](C)C=C2C=C[C@H](C)[C@H](CC[C@@H]3C[C@@H](O)CC(=O)O3)[C@H]21 [lovastatin] | – | – | – | < 20% | – |
